Measured values as given in US6716859B2, “Substituted N′-(Arylcarbonyl)-benzhydrazides, N′(Arylcarbonyl)-benzylidene-hydrazides and analogs as activators of caspases and inducers of apoptosis and the use thereof” (Cytovia, Inc., priority 2001, dated 2004).

Assays:
[1] = system: T-47D; experiment: Caspase cascade activation assay (fluorogenic DEVD substrate); format: cell-based, Human; conditions: 48 h; for Caspase activity Ratio: ratio of net RFU of test compound to control; for EC50: Homo sapiens, T47D, read-out: Caspase potency EC50
Description: (§1) Human breast cancer cell lines T-47D and ZR-75-1 were grown according to media component mixtures designated by American Type Culture Collection+10% FCS (Invitrogen Corporation), in a 5% CO2-95% humidity incubator at 37° C. T-47D and ZR-75-1 cells were maintained at a cell density between 50 and 80% confluency at a cell density of 0.1 to 0.6×10^6 cells/ml. Cells were harvested at 600×g and resuspended at 0.65×10^6 cells/ml into appropriate media+10% FCS. An aliquot of […] of cells was added to a well of a 96-well microtiter plate containing 2.5 μl of a 10% DMSO in RPMI-1640 media solution containing 0.16 to 100 μM of N′-(2-phenoxypyridine-3-carbonyl)-3-(trifluoromethyl)benzhydrazide (Example 1) or other test compound (0.016 to 10 μM final). An aliquot of 22.5 μl of cells was added to a well of a 384-well microtiter plate containing 2.5 μl of a 10% DMSO in RPMI-1640 media solution without test compound as the control sample. The samples were mixed by agitation and then incubated at 37° C. for 48 h in a 5% CO2-95% humidity incubator. After incubation, the samples were removed from the incubator and 25 μl of a solution containing 14 μM of N-(Ac-DEVD)-N′-ethoxycarbonyl-R110 (SEQ ID No:1) fluorogenic substrate (Cytovia, Inc.; WO99/18856), 20% sucrose (Sigma), 20 mM DTT (Sigma), 200 mM NaCl (Sigma), 40 mM Na PIPES buffer pH 7.2 (Sigma), and 500 μg/ml lysolecithin (Calbiochem) was added. The samples were mixed by agitation and incubated at room temperature. Using a fluorescent plate reader (Model SpectraMax Gemini, Molecular Devices), an initial reading (T=0) was made approximately 1-2 min after addition of the substrate solution, employing excitation at 485 nm and emission at 530 nm, to determine the background fluorescence of the control sample. After the 3 h incubation, the samples were read for fluorescence as above (T=3 h).
(§2) The Relative Fluorescence Unit values (RFU) were used to calculate the sample readings as follows:
(§3) RFU(T=3 h)−Control RFU(T=0)=Net RFU(T=3 h)
(§4) The activity of caspase cascade activation was determined by the ratio of the net RFU value for N′-(2-phenoxypyridine-3-carbonyl)-3-(trifluoromethyl)benzhydrazide (Example 1) or other test compound to that of control samples. The EC50 (nM) was determined by a sigmoidal dose-response calculation (Prism 2.0, GraphPad Software Inc.).

[2] = system: ZR-75-1; experiment: as above; format: cell-based, Human; conditions: 48 h; for Caspase activity Ratio: ratio of net RFU of test compound to control
Description: as §1, §2, §3, §4

[3] = system: T-47D; experiment: Cell proliferation assay (GI50); format: cell-based, Human; conditions: 48 h
Description: (§5) T-47D and ZR-75-1 cells were grown and harvested as in Example 43. An aliquot of 90 μl of cells (2.2×10^4 cells/ml) was added to a well of a 96-well microtiter plate containing 10 μl of a 10% DMSO in RPMI-1640 media solution containing 1 nM to 100 μM of N′-(2-phenoxypyridine-3-carbonyl)-3-(trifluoromethyl)benzhydrazide (0.1 nM to 10 μM final). An aliquot of 90 μl of cells was added to a well of a 96-well microtiter plate containing 10 μl of a 10% DMSO in RPMI-1640 media solution without compound as the control sample for maximal cell proliferation (AMax). The samples were mixed by agitation and then incubated at 37° C. for 48 h in a 5% CO2-95% humidity incubator. After incubation, the samples were removed from the incubator and 20 μl of CellTiter 96 AQUEOUS One Solution Cell Proliferation™ reagent (Promega) was added. The samples were mixed by agitation and incubated at 37° C. for 2-4 h in a 5% CO2-95% humidity incubator. Using an absorbance plate reader (Model 1420 Wallac Instruments), an initial reading (T=0) was made approximately 1-2 min after addition of the solution, employing absorbance at 490 nm. This determines the possible background absorbance of the test compounds. No absorbance for N′-(2-phenoxypyridine-3-carbonyl)-3-(trifluoromethyl)benzhydrazide was found at 490 nm. After the 2-4 h incubation, the samples were read for absorbance as above (ATest).
(§6) Baseline for GI50 (dose for 50% inhibition of cell proliferation) of initial cell numbers were determined by adding an aliquot of 90 μl of cells or 90 μl of media, respectively, to wells of a 96-well microtiter plate containing 10 μl of a 10% DMSO in RPMI-1640 media solution. The samples were mixed by agitation and then incubated at 37° C. for 0.5 h in a 5% CO2-95% humidity incubator. After incubation, the samples were removed from the incubator and 20 μl of CellTiter 96 AQUEOUS One Solution Cell Proliferation™ reagent (Promega) was added. The samples were mixed by agitation and incubated at 37° C. for 2-4 h in a 5% CO2-95% humidity incubator. Absorbance was read as above, (AStart) defining absorbance for initial cell number used as baseline in GI50 determinations.
(§7) GI50 (dose for 50% inhibition of cell proliferation) is the concentration where [(ATest−AStart)/(AMax−AStart)]=0.5
(§8) T-47D, ZR-75-l, MX-1, SK-Br-3, MCF-7, Panc-1, K562 and PC-3 cells were grown according to the conditions recommended by American Type Culture Collection. SW620 and NCI-H23 were grown according to the conditions provided by National Cancer Institute. The cell proliferation assay and the calculations of GI50 were performed as in Example 21 (Tables III and IV).

[4] = system: K562; experiment: Cell proliferation assay (GI50); format: cell-based; conditions: Homo sapiens
Description: as §5, §6, §7, §8

[5] = system: MCF-7; experiment: Cell proliferation assay (GI50); format: cell-based; conditions: Homo sapiens, MCF7
Description: as §5, §6, §7, §8

[6] = system: MX-1; experiment: Cell proliferation assay (GI50); format: cell-based; conditions: Homo sapiens, MX1
Description: as §5, §6, §7, §8

[7] = system: NCI-H23; experiment: Cell proliferation assay (GI50); format: cell-based; conditions: Homo sapiens
Description: as §5, §6, §7, §8

[8] = system: PC-3; experiment: Cell proliferation assay (GI50); format: cell-based; conditions: Homo sapiens
Description: as §5, §6, §7, §8

[9] = system: Panc-1; experiment: Cell proliferation assay (GI50); format: cell-based; conditions: Homo sapiens
Description: as §5, §6, §7, §8

[10] = system: SK-Br-3; experiment: Cell proliferation assay (GI50); format: cell-based; conditions: Homo sapiens
Description: as §5, §6, §7, §8

[11] = system: SW-620; experiment: Cell proliferation assay (GI50); format: cell-based; conditions: Homo sapiens
Description: as §5, §6, §7, §8

[12] = system: ZR-75-1; experiment: Cell proliferation assay (GI50); format: cell-based; conditions: Homo sapiens, 48 h
Description: as §5, §6, §7, §8

[13] = system: T-47D cells; experiment: Cell cycle arrest by propidium iodide flow cytometry; format: cell-based, Human; conditions: 1 μM, 24 h
Description: T-47D, a breast cancer cell line, was maintained and harvested as described in Example 43. 5×10^5 Cells were treated with 1 μM of N′-(2-phenoxypyridine-3-carbonyl)-3-(trifluoromethyl)benzhydrazide for 24 h at 37° C. As a control, cells were also incubated with equivalent amount of solvent (DMSO). Cells were harvested at 1,200 rpm and then transferred to 12×75 mm polystyrene tubes. Cells were then resuspended in 500 μl of 1% Na Citrate, 0.1% Triton X-100, and 50 μg/ml of propidium iodide and incubated at room temperature for 30 min followed by flow cytometer analysis. All flow cytometry analyses were performed on FACScalibur (Becton Dickinson) using Cell Quest analysis software. The x-axis plotted the amount of fluorescence and the y-axis is plotted the number of cells with the indicated fluorescence. The T-47D control cell population profile is seen in FIG. 1A and the increase in G2/M (M4) DNA content cells that were treated with N′-(2-phenoxypyridine-3-carbonyl)-3-(trifluoromethyl)benzhydrazide is seen in FIG. 1B.

[14] = system: MX-1 cells; experiment: Clonogenic survival assay; format: cell-based; conditions: Homo sapiens, MX1, 48 h treatment, read-out: IC50 of inhibition of clonogenic survival
Description: (§9) T47D and MX-1 cells were grown according to the conditions recommended by American Type Culture Collection. In a well of a 96 well plate, 30,000 cells were seeded and treated with compound at the indicated concentrations for 48 hr in a 5% CO2-95% humidity incubator at 37° C. Control wells were treated with the same amount of solvent (DMSO) as the compound samples. After the indicated treatment time, the supernatant was removed to a sterile culture tube and the wells washed with phosphate buffered saline, and the adherent cells trypsinized for 5 min. The trypsinzed cells were added to the culture supernatant, cells were collected (1,200 rpm, 10 min), washed with phosphate buffered saline, and resupended in fresh media. The cells were counted for trypan blue negative cells, and the cells diluted with fresh media to 1,000 cells/ml. To a well of a 24-well plate, 0.1 ml of the cell suspension was added along with 1 ml of fresh media (cell suspensions were passed through a 22 G needle several times just before plating to form single cell suspensions). Plates are incubated in a 5% CO2-95% humidity incubator at 37° C. for 7-10 days. Colonies are counted when the sizes reached greater than 50 cells per colony. […] Colonies are rinsed with water and the colonies counted and the fraction surviving expressed as the percentage of the number of control colonies.

[15] = system: T47D cells; experiment: Clonogenic survival assay; format: cell-based; conditions: Homo sapiens, 48 h treatment, read-out: IC50 of inhibition of clonogenic survival
Description: as §9

[16] = system: breast and non-breast cancer cells; experiment: Cell proliferation assay, breast versus non-breast cancer cell lines; format: cell-based; conditions: conclusion from Tables III and IV
Description: as §5
as §6, with “Absorbance was read as above, (AStart) defining absorbance for initial cell number used as baseline in GI50 determinations.” left out

EC50 [1] [nM]	Caspase potency EC50 [2]	GI50 ([3]; Homo sapiens, T47D) [nM]	GI50 [4] [nM]	GI50 [5] [nM]	GI50 [7] [nM]	GI50 [8] [nM]	GI50 [9] [nM]	GI50 [10] [nM]	GI50 [11] [nM]	EC50 ([2]; Homo sapiens, read-out: Caspase potency EC50) [nM]	GI50 [3] [nM]	Structure (SMILES)	Caspase activity Ratio [1]	Caspase activity Ratio [2]	GI50 [6] [nM]	GI50 [12] [nM]	G2/M (M4) DNA content cells [13]	IC50 [14] [nM]	IC50 [15] [nM]	Selectivity of growth inhibition for breast cancer cells [16]
464	INACTIVE	200	> 10000	400	> 10000	> 10000	> 10000	40	> 10000	–	–	O=C(NNC(=O)c1cccnc1Oc1ccccc1)c1cccc(C(F)(F)F)c1 [Example 1, N′-(2-Phenoxypyridine-3-carbonyl)-3-(trifluoromethyl)benzhydrazide]	11.6	1.8	400	4500	increase	~600	~1050	selectively inhibits the growth of breast cancer cells
744	–	1000	450	800	1000	–	–	300	1000	728	600	O=C(NNC(=O)c1cccnc1Oc1ccccc1)c1ccccc1O [Example 8, N′-(2-Phenoxypyridine-3-carbonyl)-2-hydroxybenzhydrazide]	7.3	5.6	1000	300	–	–	–	inhibiting the growth of both breast and non-breast cancer cells
–	–	60	–	250	> 10000	–	–	20	> 10000	–	80	O=C(NN=Cc1cccc(C(F)(F)F)c1)c1cccnc1Oc1ccccc1 [Example 15, 2-Phenoxypyridine-3-carboxylic acid (3-trifluoromethylbenzylidene)-hydrazide]	–	–	400	2000	–	–	–	selectively inhibits the growth of breast cancer cells
